The results in this text go back to US9234050B2, “Chitosan derivatives to treat animals or optimize animal health” (priority 2008, dated 2016).

Where two headings read alike, the source gives them in different places. Where a SMILES comes first, the peptide text is derived from it. Bridges are numbered along the chain shown (N, C = ends). [ ]: non-standard residue; d: D form. The star is where a group is joined. Ileψ(thiazoline)Cys = CC[C@H](C)[C@H](N)C1=N[C@H](C(=O)*)CS1; dOrn = NCCC[C@@H](N)C(=O)O

Experiment [1] deals with P. multocida (ATCC 11039). Conditions: for Bacitracin (log reduction alone): BAC 32 μg/mL.
For experiment [2], the system named is S. enterica (ATCC 700720).
Experiment [3] relates to C. perfringens (ATCC 12919). Format: cell-based.
The nature of experiment [4]: Poultry study in feed (weight gain). Conditions: dosage 55 mg/kg in feed; treated feed fed for 8 days. Format: in vivo, chicks. An excerpt:
Various doses of two different functionalized chitosan-arginines were mixed in feed, both originally 84% degree of deacetylation. “10% functionalized” has a MW of 39 kDa, 12% functionalized, % DDA=82 and polydispersity index (PDI) of 1.5. “30% functionalized” has a MW of 27 kDa, 26% functionalized, % DDA=82 and polydispersity index (PDI) of 1.7. Dosing of feed may be irregular due to challenges in mixing extremely small quantities of material uniformly (sprayed on cornmeal from water solution, mixed with feedmeal). Twelve replicate pens of five chicks were used for each treatment. Treated feed was fed for 8 days, and weight gain and feed conversion were examined after 21 days (comparison with day 1). Awt21 is the average weight gain after 21 days and P Diff is the statistical P value between the measured and control.

`CC[C@H](C)[C@H](N)C1=N[C@H](C(=O)N[C@@H](CC(C)C)C(=O)N[C@H](CCC(=O)O)C(=O)N[C@H](C(=O)N[C@H]2CCCCNC(=O)[C@H](CC(N)=O)NC(=O)[C@@H](CC(=O)O)NC(=O)[C@H](Cc3cnc[nH]3)NC(=O)[C@@H](Cc3ccccc3)NC(=O)[C@H]([C@@H](C)CC)NC(=O)[C@@H](CCCN)NC2=O)[C@@H](C)CC)CS1` [Bacitracin] ({Ileψ(thiazoline)Cys}-L[dE]IK[dOrn]I[dF]H[dD]N; lactam 4-C): the “Bacitracin (log reduction alone)” value worked out at 0 log in experiment [1] (Assay 1); 0.2 log in experiment [1] (Assay 2); 0.08 log in experiment [2] (Assay 1, BAC 4 μg/mL); 0.08 log in experiment [2] (Assay 1, BAC 8 μg/mL); 0.2 log in experiment [2] (Assay 2, BAC 2 μg/mL); 0 log in experiment [2] (Assay 2, BAC 4 μg/mL). The compound also had a bactericidal concentration in experiment [1] (P. multocida (ATCC 11039)) of more than 128 µg/mL.

As to `CN(C)[C@@H]1C(O)=C(C(N)=O)C(=O)[C@@]2(O)C(O)=C3C(=O)c4c(O)cccc4[C@@](C)(O)[C@H]3C[C@@H]12` [Tetracycline], the “Tetracycline (log reduction alone)” value is listed as 0.1 log in experiment [3] (Assay 1, TET 0.05 μg/mL) and 0.1 log in experiment [3] (Assay 2, TET 0.2 μg/mL).

Consider Penicillin, for which the “Awt21 (average weight gain after 21 days)” value in experiment [4] came out at 0.852 kg.
